Measured values from patent publication US20200236969A1, “METHODS AND COMPOSITIONS FOR IMPROVING GROWTH AND PERFORMANCE” (priority 2017, published 2020).

How the values were obtained:
day-of-hatch turkeys = assay: Second caged trial: 4-strain combination vs FM-B11 and BMD, body weight; type: in vivo, turkey
From the text: FIG. 5A and FIG. 5B show average body weights in grams (y-axis) for day-of-hatch turkeys treated with a 4-strain probiotic blend inoculation group, day-of-hatch turkeys treated with an existing commercial probiotic derived from chickens (FM-B11), and day-of-hatch turkeys treated with a low-dose antibiotic (bacitracin methylene disalicylate or BMD), as described in Example 2, compared to day-of-hatch turkeys treated with a saline negative control. FIG. 5A. Turkeys were weighed on day 0 (that is, day-of-hatch), day 3, day 6, and day 13. Error bars depict standard error of means. […] For each treatment group, eight replicate cages were used with 10 birds per cage (n=80 per treatment group).
A second trial was performed to repeat the 4-strain combination inoculation and compare it again with a negative saline control, an existing commercial probiotic derived from chickens (FM-B11), and a low-dose antibiotic (bacitracin methylene disalicylate or BMD) administered continuously at 50 g/ton in the feed. […] Results are shown in FIG. 5 and Table 5 and indicate that there is repeatability in the ability of this 4-strain combination to enhance turkey performance related to weight gain.

turkey poults = assay: Pen trial of probiotic blends alone and with prebiotics: body weight, uniformity, feed conversion; type: in vivo
Description: Pen trial experiments were performed using the 4-strain probiotic blend and 10-strain (3 week) probiotic blend described in Example 2. The effect of each combination was assessed alone and in combination with one of two prebiotics, Lactose 1% in feed or 0.5 lbs SAFMANNAN per ton of feed (Phileo Lesaffre Animal Care, Marcq-En-Baroeul Cedex, France). The prebiotic was administered continuously in feed.
This Experiment started in December 2017 and lasted 15 weeks. Poults were housed in pens through 6 weeks of age then moved to a common area. They remained on experimental feed through 6 weeks; then were all given control feed. Probiotic inoculations were performed at day of hatch and 3 weeks of age.

Row | Compound | Average body weight Day 3 (day-of-hatch turkeys; day 3) | Average body weight Day 6 (day-of-hatch turkeys; day 6) | Average body weight Day 13 (day-of-hatch turkeys; day 13) | Average body weight Day 0 (day-of-hatch turkeys; day-of-hatch (baseline)) | Feed conversion ratio 0-2 weeks (turkey poults; 0-2 weeks of age) | Feed conversion ratio 0-6 weeks (turkey poults; 0-6 weeks of age) | Total body weight average Day 0 (turkey poults; Day 0 (baseline), pen trial) | Total body weight average Week 1 (turkey poults; Week 1, pen trial, probiotic at day of hatch and 3 weeks, prebiotic continuously in feed) | Total body weight average Week 2 (turkey poults; Week 2, pen trial) | Total body weight average Week 3 (turkey poults; Week 3, pen trial) | Coefficient of variation as a measure of bird uniformity Week 3 (turkey poults; Week 3 of age) | Total body weight average Week 6 (turkey poults; Week 6, pen trial) | Coefficient of variation as a measure of bird uniformity Week 6 (turkey poults; Week 6 of age)
1 | bacitracin methylene disalicylate [BMD Antibiotic] | 76.8 g | 125.5 g | 314.3 g | 60.1 g |  |  |  |  |  |  |  |  | 
2 | OC[C@H]1O[C@@H](O[C@H]2[C@H](O)[C@@H](O)C(O)O[C@@H]2CO)[C@H](O)[C@@H](O)[C@H]1O (stereo partly shown) [Lactose 1%, Lactose] |  |  |  |  | 1.40 | 1.71 | 65.0 grams | 169.9 grams | 350.7 grams | 704.0 grams | 10.304 | 2471.0 grams | 9.3181
